# Test results reported in US20250304700A1, “ANTI-BLOOD DENDRITIC CELL ANTIGEN 2 ANTIBODIES AND USES THEREOF” (Biogen MA Inc., priority 2012, published 2025).
# Columns and labels:
# [1] = tested on: TLR9-induced IFNα production; test: Ex vivo whole blood assay (MxA bioassay) after in vivo dosing; set-up: species or system cynomolgus monkey
# Method: FIG. 58 is a schematic representation of the Cynomolgus Monkey PK/PD Experimental Design. Nine Cynomolgus monkeys completed the intravenous (IV) dose study. […] At each bleeding time point, a whole blood assay was performed where whole blood from the cynomolgus monkeys was diluted 1:4 with complete RPMI 1640 and stimulated with CPG-A to a final concentration of 200 μg/ml in a 96 well round bottom tissue culture plate and incubated at 37° C. 5% CO2 for 18-20 hours. At the end of the culture, the stimulated whole blood was centrifuged to harvest serum. In the MxA bioassay, A549 cells were stimulated with the harvested serum for 19-20 hours at 37° C. 5% CO2 to induce MxA protein. After 20 hours, A549 cells were lysed and a sandwich ELISA was performed to detect concentrations of MxA protein. IFNα levels (units/mL) were back calculated from a standard curve generated by treating A549 cells with increasing doses of rIFNa.
# Intravenous and subcutaneous dosing routes were evaluated for their ability to impact IFNα induction, which was measured using the MxA bioassay according to the experimental plan outlined in FIG. 58. TLR9 ligand (CpG-A) induced measurable quantities of IFNα in whole blood cultures across all time points and in all cynomolgus monkeys, while no IFNα was detected in the control PBS-treated cultures (data not shown).
# A more comprehensive analysis of the data was performed using two-way mixed effects analysis of variance (ANOVA) to estimate the mean IFNα and the post versus pre differences for each dose group in the IV-study. Data during the first 24 hours following dosing were excluded due to an observed decrease in peripheral blood plasmacytoid dendritic cell percentages. Data for bleeds after day 31 post-dose were excluded from the analysis due to the return of BDCA2 expression observed at this time. For the vehicle dosed group, the geometric mean IFNα was 362 Units/mL (U/mL) pre-dose, and 314 U/mL post-dose; for the 1 mg/kg dosed group, the geometric mean was 399 U/mL pre-dose, and 237 U/mL post-dose; for the 10 mg/kg group, the geometric mean IFNα was 211 U/mL pre-dose, and 102 U/mL post-dose (FIG. 4). The post-pre differences in mean log 10 IFNα were-0.061 (p=0.511) for the Vehicle group, −0.226 (p=0.016) for the 1 mg/kg group, and −0.317 (p=0.004) for the 10 mg/kg group.
# For the subcutaneously-dosed cynomolgus monkey cohort, a one-way analysis of variance (ANOVA) with random effects was used to estimate the mean IFNα and the post versus pre differences for the entire group. Data during the first 24 hours following dosing were excluded due to an observed decrease in peripheral blood plasmacytoid dendritic cell percentages. Data for bleeds after day 33 post-dose were excluded from the analysis due to the recovery of BDCA2 expression observed at this time. For the subcutaneously dosed group, the geometric mean IFNα was 1243 U/mL pre-dose and 812 U/mL post-dose, yielding a post/pre ratio of 65%. The post-pre difference in mean log 10 was estimated to be −0.185 (p=0.059) which, after anti-log 10 transformation, corresponds to 10^(−0.185)=65% of the pre-dose geometric mean; the 95% CI of this effect is 41%-102% (FIG. 61).
# [2] = tested on: human and cynomolgus BDCA2 ECD; test: Octet binding of BIIB059 to BDCA2 ECD; set-up: species or system cynomolgus monkey; details: BIIB059 on anti-human Fc tips, ECD 2 μg/mL, 5 mM CaCl2
# Method: For the association step, human and cynomolgus BDCA2 ECD was added at a concentration of 2 μg/mL. The buffer for this experiment was 50 mM HEPES, pH 7, 100 mM NaCl, 5 mM CaCl2, 1 mg/mL BSA, 0.02% Tween 20 and 0.001% azide.
substance,measurement,setting,value
"BIIB059: humanized IgG1 anti-BDCA2 antibody, mature heavy chain SEQ ID NO: 4 and mature light chain SEQ ID NO: 3","IFNα post-dose, of the pre-dose geometric mean",[1]; 0.2 mg/kg SC,65%
same,post-pre difference in mean log 10 IFNα,[1]; 0.2 mg/kg SC,−0.185
same,geometric mean IFNα post-dose,"[1]; 0.2 mg/kg SC, up to day 33",812 U/mL
same,IFN concentration post-dose compared to pre-dose,[1]; 1 mg/kg IV,59%
same,post-pre difference in mean log 10 IFNα,[1]; 1 mg/kg IV,−0.226
same,geometric mean IFNα post-dose,"[1]; 1 mg/kg IV, up to day 31",237 U/mL
same,IFN concentration post-dose compared to pre-dose,[1]; 10 mg/kg IV,48%
same,geometric mean IFNα post-dose,[1]; 10 mg/kg IV,102 U/mL
same,post-pre difference in mean log 10 IFNα,[1]; 10 mg/kg IV,−0.317
same,"TLR9-induced IFN production ex vivo, in words","[1]; dosed in vivo, IV and SC",trend towards inhibited TLR9-induced IFN production
same,binding to human versus cyno BDCA2 ECD,[2],comparable
